Laboratory results from US8933094B2, “Ethynyl compounds useful for treatment of CNS disorder” (Hoffmann-La Roche Inc., priority 2009, dated 2015).

Target: T1, human mGlu5a receptor (Homo sapiens, UniProt P41594)
T1 construct: expressed in transfected cells
Assay: Intracellular Ca2+ mobilization assay (mGlu5 PAM)
Assay type: cell-based
Details: for EC50: HEK-293 cells stably transfected with human mGlu5a, L-glutamate added at EC20 after 10-30 min pre-incubation with test compound, read-out: EC50 (nM) mGlu5PAM; for Emax: maximal response in % of the maximal stimulatory effect obtained with saturating concentrations of L-glutamate, read-out: Eff. (%)
Protocol: A monoclonal HEK-293 cell line stably transfected with a cDNA encoding for the human mGlu5a receptor was generated; for the work with mGlu5 Positive Allosteric Modulators (PAMs), a cell line with low receptor expression levels and low constitutive receptor activity was selected to allow the differentiation of agonistic versus PAM activity. Cells were cultured according to standard protocols (Freshney, 2000) in Dulbecco's Modified Eagle Medium with high glucose supplemented with 1 mM glutamine, 10% (vol/vol) heat-inactivated bovine calf serum, Penicillin/Streptomycin, 50 μg/ml hygromycin and 15 μg/ml blasticidin (all cell culture reagents and antibiotics from Invitrogen, Basel, Switzerland).
About 24 hrs before an experiment, 5×10^4 cells/well were seeded in poly-D-lysine coated, black/clear-bottomed 96-well plates. The cells were loaded with 2.5 μM Fluo-4AM in loading buffer (1×HBSS, 20 mM HEPES) for 1 hr at 37° C. and washed five times with loading buffer. The cells were transferred into a Functional Drug Screening System 7000 (Hamamatsu, Paris, France), and 11 half logarithmic serial dilutions of test compound at 37° C. were added and the cells were incubated for 10-30 min. with on-line recording of fluorescence. Following this pre-incubation step, the agonist L-glutamate was added to the cells at a concentration corresponding to EC20 (typically around 80 μM) with on-line recording of fluorescence; in order to account for day-to-day variations in the responsiveness of cells, the EC20 of glutamate was determined immediately ahead of each experiment by recording of a full dose-response curve of glutamate.
Responses were measured as peak increase in fluorescence minus basal (i.e. fluorescence without addition of L-glutamate), normalized to the maximal stimulatory effect obtained with saturating concentrations of L-glutamate. Graphs were plotted with the % maximal stimulatory using XLfit, a curve fitting program that iteratively plots the data using Levenburg Marquardt algorithm. The single site competition analysis equation used was y=A+((B−A)/(1+((x/C)D))), where y is the % maximal stimulatory effect, A is the minimum y, B is the maximum y, C is the EC50, x is the log 10 of the concentration of the competing compound and D is the slope of the curve (the Hill Coefficient). From these curves the EC50 (concentration at which half maximal stimulation was achieved), the Hill coefficient as well as the maximal response in % of the maximal stimulatory effect obtained with saturating concentrations of L-glutamate were calculated.
A depression of the signal observed after addition of the EC20 concentration of L-glutamate was indicative of an inhibitory activity of the test compound.

T1 sequence (P41594 21-1180 isoform P41594-2 limits assumed): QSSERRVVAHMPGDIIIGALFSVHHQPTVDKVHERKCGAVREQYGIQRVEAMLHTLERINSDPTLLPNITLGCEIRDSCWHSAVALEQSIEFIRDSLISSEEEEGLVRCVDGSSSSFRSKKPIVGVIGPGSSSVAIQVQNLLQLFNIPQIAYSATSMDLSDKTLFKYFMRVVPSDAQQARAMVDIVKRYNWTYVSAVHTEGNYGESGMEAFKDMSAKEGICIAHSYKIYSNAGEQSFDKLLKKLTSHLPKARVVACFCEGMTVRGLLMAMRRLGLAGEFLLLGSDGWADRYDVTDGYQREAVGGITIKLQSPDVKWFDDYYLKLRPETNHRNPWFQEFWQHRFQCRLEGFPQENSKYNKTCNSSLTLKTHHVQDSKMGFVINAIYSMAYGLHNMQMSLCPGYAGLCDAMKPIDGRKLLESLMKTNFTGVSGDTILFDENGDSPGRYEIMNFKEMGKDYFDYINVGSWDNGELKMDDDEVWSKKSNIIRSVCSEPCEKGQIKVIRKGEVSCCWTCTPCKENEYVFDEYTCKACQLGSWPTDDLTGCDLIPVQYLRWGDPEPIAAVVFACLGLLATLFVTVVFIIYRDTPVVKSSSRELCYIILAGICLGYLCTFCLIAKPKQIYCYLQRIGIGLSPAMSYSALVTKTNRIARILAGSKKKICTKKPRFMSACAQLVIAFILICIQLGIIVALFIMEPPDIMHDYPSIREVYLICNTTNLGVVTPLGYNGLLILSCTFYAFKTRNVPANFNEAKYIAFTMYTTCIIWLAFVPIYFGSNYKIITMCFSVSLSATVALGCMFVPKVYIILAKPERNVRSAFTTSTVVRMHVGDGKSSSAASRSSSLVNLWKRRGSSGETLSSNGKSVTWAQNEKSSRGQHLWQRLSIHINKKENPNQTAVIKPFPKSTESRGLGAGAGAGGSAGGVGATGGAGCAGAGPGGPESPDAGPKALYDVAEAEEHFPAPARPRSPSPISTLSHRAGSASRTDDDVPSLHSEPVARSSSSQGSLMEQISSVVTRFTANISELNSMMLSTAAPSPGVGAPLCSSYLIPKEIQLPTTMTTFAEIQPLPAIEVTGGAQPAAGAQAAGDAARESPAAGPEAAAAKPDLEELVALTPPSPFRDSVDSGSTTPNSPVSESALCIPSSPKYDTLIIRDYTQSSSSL

Row | Compound | EC50 [nM] | Emax [%]
1 | CC(C)(C)c1cc2ncc(C#Cc3ccccc3N)cn2n1 [Example 36, 2-(2-tert-Butyl-pyrazolo[1,5-a]pyrimidin-6-ylethynyl)-phenylamine] | 155 | 88
2 | COc1ccc(C#Cc2cnc3cc(C(C)(C)C)nn3c2)cc1 [Example 15, 2-tert-Butyl-6-(4-methoxy-phenylethynyl)-pyrazolo[1,5-a]pyrimidine] | 68 | 53
3 | C(#Cc1cnc2cc(C3CCOCC3)nn2c1)c1ccccc1 [Example 26, 6-Phenylethynyl-2-(tetrahydro-pyran-4-yl)-pyrazolo[1,5-a]pyrimidine] | 472 | 124
4 | C(#Cc1cnc2ncnn2c1)c1ccccc1 [Example 32, 6-Phenylethynyl-[1,2,4]triazolo[1,5-a]pyrimidine] | 210 | 100
5 | N#Cc1cnn2cc(C#Cc3ccccc3)cnc12 [Example 30, 6-Phenylethynyl-pyrazolo[1,5-a]pyrimidine-3-carbonitrile] | 310 | 63

Compounds with a lower EC50, results first:

Row | EC50 [nM] | Emax [%] | Compound
6 | 28 | 54 | CC(C)(C)c1nc2ncc(C#Cc3ccc(F)c(F)c3)cn2n1 [Example 45, 2-tert-Butyl-6-(3,4-difluoro-phenylethynyl)-[1,2,4]triazolo[1,5-a]pyrimidine]
7 | 30 | 54 | CC(C)(C)c1nc2ccc(C#Cc3ccccc3)cn2n1 [Example 39, 2-tert-Butyl-6-phenylethynyl-[1,2,4]triazolo[1,5-a]pyridine]
8 | 39 | 88 | Clc1cccc(C#Cc2cnc3nc(N4CCOCC4)nn3c2)c1 [Example 50, 6-(3-Chloro-phenylethynyl)-2-morpholin-4-yl-[1,2,4]triazolo[1,5-a]pyrimidine]
9 | 19 | 80 | CC(C)(C)c1cc2ncc(C#Cc3ccccc3F)cn2n1 [Example 10, 2-tert-Butyl-6-(2-fluoro-phenylethynyl)-pyrazolo[1,5-a]pyrimidine]
10 | 9 | 73 | CC(C)(C)c1nc2ncc(C#Cc3ccccc3)cn2n1 [Example 42, 2-tert-Butyl-6-phenylethynyl-[1,2,4]triazolo[1,5-a]pyrimidine]
11 | 37 | 69 | CC(C)(C)c1cc2ncc(C#Cc3cccc(N)c3)cn2n1 [Example 35, 3-(2-tert-Butyl-pyrazolo[1,5-a]pyrimidin-6-ylethynyl)-phenylamine]
12 | 5 | 86 | CC(C)(C)c1cc2ncc(C#Cc3cccc(F)c3)cn2n1 [Example 11, 2-tert-Butyl-6-(3-fluoro-phenylethynyl)-pyrazolo[1,5-a]pyrimidine]
